# Measurements: US20160122320A1, “USEFUL COMBINATIONS OF MONOBACTAM ANTIBIOTICS WITH BETA-LACTAMASE INHIBITORS” (Basilea Pharmaceutica AG, priority 2005, published 2016)
# Where a name gives a salt, the structure may show the parent alone.
# Assays:
# Assay in all cases: MIC, NCCLS broth microdilution
# Format in all cases: cell-based
# [1] = system: Stenotrophomonas malthophilia 1AC736; settings: for MIC of antibiotic at fixed inhibitor concentration (4 mg/L): Stenotrophomonas malthophilia 1AC736, MIC of antibiotic compound 1 with the labelled bridged monobactam of formula II and clavulanate, 4 mg/L each
# Serratia marcescens S6 = settings: for MIC of antibiotic at fixed inhibitor concentration (4 mg/L): MIC of antibiotic compound 1 with the labelled bridged monobactam of formula II and clavulanate, 4 mg/L each
# [2] = system: Pseudomonas aeruginosa 1973E; settings: for MIC of antibiotic at fixed inhibitor concentration (4 mg/L): MIC of antibiotic compound 1 with the labelled bridged monobactam of formula II and clavulanate, 4 mg/L each
# Method: Antimicrobial activity of the compounds and of their combinations was determined against a selection of organisms according to the standard procedures described by the National Committee for Clinical Laboratory Standards (National Committee for Clinical Laboratory. Standards (2000). Methods for Dilution Antimicrobial Susceptibility Tests for Bacteria That Grow Aerobically-Fifth Edition: Approved Standard M7-A5. NCCLS, Wayne, Pa., USA).
# In all cases the final concentration of DMSO incubated with the bacteria is less than or equal to 1%. […] Plates were incubated overnight at an appropriate temperature (30° C. or 37° C.) and optical densities assessed by eye. The MIC value is defined as the lowest compound concentration completely inhibiting visible growth of the test organism. When combinations between compounds of formula I with compounds of formula II and are evaluated the compounds of formula I are tested in dilution series as described above while the compounds of formula II and III-XIII were present in all wells at a constant concentration of 4 μg/mL each.
# [3] = system: Pseudomonas aeruginosa MK1184; settings: for MIC of antibiotic at fixed inhibitor concentration (4 mg/L): MIC of antibiotic compound 1 with the labelled bridged monobactam of formula II and clavulanate, 4 mg/L each
# Enterobacter cloacae P99 = settings: for MIC of antibiotic at fixed inhibitor concentration (4 mg/L): MIC of antibiotic compound 1 with the labelled bridged monobactam of formula II and clavulanate, 4 mg/L each
# [4] = system: Klebsiella pneumoniae CF104; settings: for MIC of antibiotic at fixed inhibitor concentration (4 mg/L): MIC of antibiotic compound 1 with the labelled bridged monobactam of formula II and clavulanate, 4 mg/L each
# Acinetobacter sp. J2 = settings: for MIC of antibiotic at fixed inhibitor concentration (4 mg/L): Acinetobacter sp. J2, MIC of antibiotic compound 1 with the labelled bridged monobactam of formula II and clavulanate, 4 mg/L each
smiles,measurement,setting,value
NC(=O)c1ccc(NC(=O)N2CC[C@@H]3[C@H]2C(=O)N3S(=O)(=O)[O-])cc1.[Na+] [Compound 311],MIC of antibiotic at fixed inhibitor concentration (4 mg/L),[1],0.125 mg/L
same,MIC of antibiotic at fixed inhibitor concentration (4 mg/L),Serratia marcescens S6,0.25 mg/L
same,MIC of antibiotic at fixed inhibitor concentration (4 mg/L),[2],4 mg/L
same,MIC of antibiotic at fixed inhibitor concentration (4 mg/L),[3],>32 mg/L
same,MIC of antibiotic at fixed inhibitor concentration (4 mg/L),Enterobacter cloacae P99,8 mg/L
same,MIC of antibiotic at fixed inhibitor concentration (4 mg/L),[4],0.5 mg/L
same,MIC of antibiotic at fixed inhibitor concentration (4 mg/L),Acinetobacter sp. J2,4 mg/L
"O=C(C[n+]1cccc(Cc2ccccc2)c1)N1CC[C@@H]2[C@H]1C(=O)N2S(=O)(=O)[O-] [Compound 123, (1S,5R)-7-oxo-2-{2-[3-benzylpyridinium]acetyl}-2,6-diazabicyclo[3.2.0]heptane-6-sulfonate, inner salt]",MIC of antibiotic at fixed inhibitor concentration (4 mg/L),[1],0.125 mg/L
same,MIC of antibiotic at fixed inhibitor concentration (4 mg/L),Serratia marcescens S6,0.25 mg/L
same,MIC of antibiotic at fixed inhibitor concentration (4 mg/L),[2],4 mg/L
same,MIC of antibiotic at fixed inhibitor concentration (4 mg/L),[3],32 mg/L
same,MIC of antibiotic at fixed inhibitor concentration (4 mg/L),Enterobacter cloacae P99,32 mg/L
same,MIC of antibiotic at fixed inhibitor concentration (4 mg/L),[4],0.125 mg/L
same,MIC of antibiotic at fixed inhibitor concentration (4 mg/L),Acinetobacter sp. J2,>32 mg/L
"COC(=O)c1cc(C)c[n+](CC(=O)N2CC[C@@H]3[C@H]2C(=O)N3S(=O)(=O)[O-])c1 [Compound 114, (1S,5R)-2-{2-[3-(methoxycarbonyl)-5-methylpyridinium]acetyl}-7-oxo-2,6-diazabicyclo[3.2.0]heptane-6-sulfonate, inner salt]",MIC of antibiotic at fixed inhibitor concentration (4 mg/L),[1],0.125 mg/L
same,MIC of antibiotic at fixed inhibitor concentration (4 mg/L),Serratia marcescens S6,0.25 mg/L
same,MIC of antibiotic at fixed inhibitor concentration (4 mg/L),[2],4 mg/L
same,MIC of antibiotic at fixed inhibitor concentration (4 mg/L),[3],16 mg/L
same,MIC of antibiotic at fixed inhibitor concentration (4 mg/L),Enterobacter cloacae P99,32 mg/L
same,MIC of antibiotic at fixed inhibitor concentration (4 mg/L),[4],0.125 mg/L
same,MIC of antibiotic at fixed inhibitor concentration (4 mg/L),Acinetobacter sp. J2,>32 mg/L
"NC(=S)c1cc[n+](CC(=O)N2CC[C@@H]3[C@H]2C(=O)N3S(=O)(=O)[O-])cc1 [Compound 118, (1S,5R)-2-{2-[4-(aminothioxomethyl)pyridinium]acetyl}-7-oxo-2,6-diazabicyclo[3.2.0]heptane-6-sulfonate, inner salt]",MIC of antibiotic at fixed inhibitor concentration (4 mg/L),[1],0.125 mg/L
same,MIC of antibiotic at fixed inhibitor concentration (4 mg/L),Serratia marcescens S6,0.25 mg/L
same,MIC of antibiotic at fixed inhibitor concentration (4 mg/L),[2],4 mg/L
same,MIC of antibiotic at fixed inhibitor concentration (4 mg/L),[3],32 mg/L
same,MIC of antibiotic at fixed inhibitor concentration (4 mg/L),Enterobacter cloacae P99,32 mg/L
same,MIC of antibiotic at fixed inhibitor concentration (4 mg/L),[4],0.125 mg/L
same,MIC of antibiotic at fixed inhibitor concentration (4 mg/L),Acinetobacter sp. J2,>32 mg/L
"CCC(=O)c1cc[n+](CC(=O)N2CC[C@@H]3[C@H]2C(=O)N3S(=O)(=O)[O-])cc1 [Compound 117, (1S,5R)-7-oxo-2-[2-(4-propanoylpyridinium)acetyl]-2,6-diazabicyclo[3.2.0]heptane-6-sulfonate, inner salt]",MIC of antibiotic at fixed inhibitor concentration (4 mg/L),[1],0.25 mg/L
same,MIC of antibiotic at fixed inhibitor concentration (4 mg/L),Serratia marcescens S6,0.25 mg/L
same,MIC of antibiotic at fixed inhibitor concentration (4 mg/L),[2],4 mg/L
same,MIC of antibiotic at fixed inhibitor concentration (4 mg/L),[3],16 mg/L
same,MIC of antibiotic at fixed inhibitor concentration (4 mg/L),Enterobacter cloacae P99,32 mg/L
same,MIC of antibiotic at fixed inhibitor concentration (4 mg/L),[4],0.125 mg/L
same,MIC of antibiotic at fixed inhibitor concentration (4 mg/L),Acinetobacter sp. J2,>32 mg/L
CC1(C)C(NC(=O)C(=NOCc2cc(=O)c(O)cn2O)c2csc(N)n2)C(=O)N1OCC(=O)O (centres unmarked) [Compound 33],MIC of antibiotic,"[1]; Stenotrophomonas maltophilia 1AC736, antibiotic alone, no inhibitor",2 mg/L
same,MIC of antibiotic at fixed inhibitor concentration of 4 mg/L,"[1]; Stenotrophomonas maltophilia 1AC736, with 102 and clavulanate",2 mg/L
same,MIC of antibiotic at fixed inhibitor concentration of 4 mg/L,"[1]; Stenotrophomonas maltophilia 1AC736, with 324 and clavulanate",2 mg/L
same,MIC of antibiotic,"Serratia marcescens S6; antibiotic alone, no inhibitor",0.5 mg/L
same,MIC of antibiotic at fixed inhibitor concentration of 4 mg/L,Serratia marcescens S6; with 102 and clavulanate,0.25 mg/L
same,MIC of antibiotic at fixed inhibitor concentration of 4 mg/L,Serratia marcescens S6; with 324 and clavulanate,0.25 mg/L
same,MIC of antibiotic,"[2]; antibiotic alone, no inhibitor",32 mg/L
same,MIC of antibiotic at fixed inhibitor concentration of 4 mg/L,[2]; with 102 and clavulanate,16 mg/L
same,MIC of antibiotic at fixed inhibitor concentration of 4 mg/L,[2]; with 324 and clavulanate,16 mg/L
same,MIC of antibiotic,"[3]; antibiotic alone, no inhibitor",32 mg/L
same,MIC of antibiotic at fixed inhibitor concentration of 4 mg/L,[3]; with 102 and clavulanate,16 mg/L
same,MIC of antibiotic at fixed inhibitor concentration of 4 mg/L,[3]; with 324 and clavulanate,32 mg/L
same,MIC of antibiotic,"Enterobacter cloacae P99; antibiotic alone, no inhibitor",32 mg/L
same,MIC of antibiotic at fixed inhibitor concentration of 4 mg/L,Enterobacter cloacae P99; with 102 and clavulanate,4 mg/L
same,MIC of antibiotic at fixed inhibitor concentration of 4 mg/L,Enterobacter cloacae P99; with 324 and clavulanate,16 mg/L
same,MIC of antibiotic,"[4]; antibiotic alone, no inhibitor",2 mg/L
same,MIC of antibiotic at fixed inhibitor concentration of 4 mg/L,[4]; with 102 and clavulanate,0.5 mg/L
same,MIC of antibiotic at fixed inhibitor concentration of 4 mg/L,[4]; with 324 and clavulanate,0.5 mg/L
same,MIC of antibiotic,"Acinetobacter sp. J2; Acinetobacter baumannii J2, antibiotic alone, no inhibitor",>32 mg/L
same,MIC of antibiotic at fixed inhibitor concentration of 4 mg/L,"Acinetobacter sp. J2; Acinetobacter baumannii J2, with 102 and clavulanate",16 mg/L
same,MIC of antibiotic at fixed inhibitor concentration of 4 mg/L,"Acinetobacter sp. J2; Acinetobacter baumannii J2, with 324 and clavulanate",8 mg/L
"O=C(N[C@@H]1CCNC1)c1ccc[n+](CC(=O)N2CC[C@@H]3[C@H]2C(=O)N3S(=O)(=O)[O-])c1 [Compound 125, 2-(2-{3-[N-((3R)pyrrolidin-3-yl)carbamoyl]pyridinium}acetyl)(1S,5R)-7-oxo-2,6-diazabicyclo[3.2.0]heptane-6-sulfonate, inner salt]",MIC of antibiotic at fixed inhibitor concentration (4 mg/L),[1],0.125 mg/L
same,MIC of antibiotic at fixed inhibitor concentration (4 mg/L),Serratia marcescens S6,0.5 mg/L
same,MIC of antibiotic at fixed inhibitor concentration (4 mg/L),[2],8 mg/L
same,MIC of antibiotic at fixed inhibitor concentration (4 mg/L),[3],16 mg/L
same,MIC of antibiotic at fixed inhibitor concentration (4 mg/L),Enterobacter cloacae P99,32 mg/L
same,MIC of antibiotic at fixed inhibitor concentration (4 mg/L),[4],<0.06 mg/L
same,MIC of antibiotic at fixed inhibitor concentration (4 mg/L),Acinetobacter sp. J2,4 mg/L
"Nc1ccc[n+](CC(=O)N2CC[C@@H]3[C@H]2C(=O)N3S(=O)(=O)[O-])c1 [Compound 107, (1S,5R)-2-[2-(3-aminopyridinium)acetyl]-7-oxo-2,6-diazabicyclo[3.2.0]heptane-6-sulfonate, inner salt]",MIC of antibiotic at fixed inhibitor concentration (4 mg/L),[1],0.125 mg/L
same,MIC of antibiotic at fixed inhibitor concentration (4 mg/L),Serratia marcescens S6,0.125 mg/L
same,MIC of antibiotic at fixed inhibitor concentration (4 mg/L),[2],4 mg/L
same,MIC of antibiotic at fixed inhibitor concentration (4 mg/L),[3],8 mg/L
same,MIC of antibiotic at fixed inhibitor concentration (4 mg/L),Enterobacter cloacae P99,32 mg/L
same,MIC of antibiotic at fixed inhibitor concentration (4 mg/L),[4],1 mg/L
same,MIC of antibiotic at fixed inhibitor concentration (4 mg/L),Acinetobacter sp. J2,8 mg/L
"CNC(=O)c1ccc[n+](CC(=O)N2CC[C@@H]3[C@H]2C(=O)N3S(=O)(=O)[O-])c1 [Compound 101, (1S,5R)-2-{2-[3-(N-methylcarbamoyl)pyridinium]acetyl}-7-oxo-2,6-diazabicyclo[3.2.0]heptane-6-sulfonate, inner salt]",MIC of antibiotic at fixed inhibitor concentration (4 mg/L),[1],0.125 mg/L
same,MIC of antibiotic at fixed inhibitor concentration (4 mg/L),Serratia marcescens S6,0.5 mg/L
same,MIC of antibiotic at fixed inhibitor concentration (4 mg/L),[2],4 mg/L
same,MIC of antibiotic at fixed inhibitor concentration (4 mg/L),[3],8 mg/L
same,MIC of antibiotic at fixed inhibitor concentration (4 mg/L),Enterobacter cloacae P99,32 mg/L
same,MIC of antibiotic at fixed inhibitor concentration (4 mg/L),[4],2 mg/L
same,MIC of antibiotic at fixed inhibitor concentration (4 mg/L),Acinetobacter sp. J2,>32 mg/L
